In patent publication US20050101783A1, “N-(heterocycle-methyl)alkylamine derivative, process for producing the same, and bactericide” (priority 2000, published 2005):

Key:
Aspergillus fumigatus = assay: Antibacterial test to Aspergillus fumigatus (96-hole plate, IC80); format: cell-based; settings: YNB culture with 0.22% low melting point-agarose, 1×10^4 cell/ml, 25° C., 72 hours, absorbance at 620 nm
Description: (Antibacterial Test to Aspergillus fumigatus)
In the test example, a test was performed on the antibacterial of the compounds according to the present invention to Aspergillus fumigatus in the method later described.
Aspergillus fumigatus was cultivated in Sabouraud's agar at 37° C. for 3 days, after the spores to be used for the test were formed, the spore suspension was prepared. The spore suspension was suspended in YNB culture to which a 0.22% low melting point-agarose was added so as to allow the final concentration to be 1×10^4 cell/ml, and the solution was poured into each hole on a 96-hole flat-bottomed plate. Next, the dilution trains using each of the compounds according to the present invention were added, the solution was cultivated at 25° C. for 72 hours, and the propagation rate of the mold was evaluated by measuring the absorbance at 620 nm. With such a test, the propagation rate of the mold in the chemical-free test area was compared with this case to find the concentration of the compound where the propagation rate of the mold is suppressed by 80% as IC 80 (80% growth inhibition concentration).

Candida albicans = assay: Antibacterial test to Candida albicans (96-hole plate, IC80); format: cell-based; settings: cultivated at 35° C. for 72 hours, absorbance at 540 nm
Description: (Antibacterial Test to Candida albicans) In the test examples, a test was performed on the antibacterial of the compounds according to the present invention to Candida albicans in the methods later described. The culture dilution train containing each compound was prepared by using a 96-hole flat-bottomed plate, and the inoculation mold solution controlled at 1 to 5×10^3 cell/ml beforehand of 10 μl was added to each hole on the plate. After the inoculation, the molds were cultivated at 35° C. for 72 hours, and the propagation of the mold was evaluated by measuring the absorbance at 540 nm. With such a test, the propagation of the mold in this case was compared with the propagation of the mold in the chemical-free test area to find the concentration of a compound where the propagation rate of the mold is suppressed by 80% as IC 80 (80% growth inhibition concentration).

SMILES: CC(C)(CNCc1ccncn1)Cc1ccc(C(C)(C)C)cc1 [Compound I-10]
- 80% Growth Inhibition Concentration (IC80) (Aspergillus fumigatus): 38 µg/mL
- 80% Growth Inhibition Concentration (IC80) (Candida albicans): 75 µg/mL
